Literature values in patent US20260048008A1, “ORGANOGELS FOR SUSTAINED DRUG DELIVERY, METHODS OF PREPARATION AND USE THEREOF” (OCULAR THERAPEUTIX, INC., priority 2022, published 2026).

solubility in water: practically insoluble in water
SMILES: CC(C)OC(=O)CCC/C=C\C[C@@H]1[C@@H](/C=C/[C@@H](O)COc2cccc(C(F)(F)F)c2)[C@H](O)C[C@@H]1O [Travoprost]
